Molecules are shown by their SMILES. A value given as a limit tells only on which side of the number the result lay.

For one test, the target named is T1, Gelatinase (MMP-2) (Homo sapiens, UniProt P08253).
T1 sequence (P08253 110-660): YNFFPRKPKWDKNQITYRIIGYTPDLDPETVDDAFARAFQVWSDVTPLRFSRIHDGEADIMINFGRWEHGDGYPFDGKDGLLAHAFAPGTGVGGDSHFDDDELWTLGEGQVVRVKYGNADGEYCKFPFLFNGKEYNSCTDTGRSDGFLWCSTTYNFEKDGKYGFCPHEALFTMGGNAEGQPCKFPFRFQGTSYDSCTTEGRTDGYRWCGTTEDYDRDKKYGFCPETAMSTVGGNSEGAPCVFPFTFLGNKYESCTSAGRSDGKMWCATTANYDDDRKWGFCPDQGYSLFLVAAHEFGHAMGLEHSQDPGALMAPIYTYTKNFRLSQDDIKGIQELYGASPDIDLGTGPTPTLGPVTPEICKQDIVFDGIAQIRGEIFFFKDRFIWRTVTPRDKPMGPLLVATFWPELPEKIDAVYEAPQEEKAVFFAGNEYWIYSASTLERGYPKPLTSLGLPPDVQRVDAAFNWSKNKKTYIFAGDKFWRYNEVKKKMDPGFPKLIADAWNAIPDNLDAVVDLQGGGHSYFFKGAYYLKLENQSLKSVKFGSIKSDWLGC
Put plainly: Gelatinase (MMP-2) inhibitory activity, fluorogenic peptide substrate cleavage. In kind it is biochemical. The note with it: read-out: MMP02 IC50. The method, then: (§1) Gelatinase (MMP-2) inhibitory activities can be determined as follows: Stock solutions of substrate (MCA-Lys-Pro-Leu-Gly-Leu-Dpa-Ala-Arg-NH2) are prepared in DMSO at a concentration of 1.4 mM. Stock solutions of inhibitors (0.03 μM-3 mM) are also prepared in DMSO. The inhibitors are diluted into the assay solutions, and the controls use an equal volume of DMSO so that the final DMSO concentration from the inhibitor and substrate dilutions in all assays is 1.0%. Assays are performed in an assay buffer (100 mM sodium chloride, 10 μM ZnCl. Sub 2, 10 mM CaCl2, 100 mM Tris-Cl pH7.5, 0.05% Brij-35), containing 1.0% DMSO from the substrate and inhibitor additions. The substrate concentration used in the assays is 5 μM. The assays are carried out at 20-25° C. The fluorescence changes, as a result of substrate cleavage, are monitored using an excitation wavelength of 325 nm and an emission wavelength of 405 nm. The reaction mixtures are added in duplicate into appropriate wells of a 384-well assay plate. The reaction mixtures are preincubated with the inhibitors for 60 minutes The reactions are started by the addition of MMP substrate, and the fluorescence intensity changes are measured after 60 minutes The apparent enzyme activity in the presence of an inhibitor is then compared with that in the absence of any inhibitor to determine the inhibition effect of the inhibitor. These techniques are within the knowledge of one skilled in the art. The inhibition results are expressed as the inhibitor concentrations required to effect 50% inhibition (IC50) of the enzyme activity, as compared with the control (non-inhibited) reactions.

A further test has as its target Collagenase-3 (MMP-13) (Homo sapiens, UniProt P45452). Put plainly: Collagenase-3 (MMP-13) inhibitory activity, fluorogenic peptide substrate cleavage. Conditions: read-out: MMP13 IC50. In kind it is biochemical. As to the method: as §1
Collagenase-3 (MMP-13) inhibitory activity is determined as described above. Recombinant pro-collagenase-3 is activated with 1 mM APMA, and stored in the assay buffer after extensive dialysis in the assay buffer.

As usually defined, the IC50 is the concentration at which inhibition is half-maximal. For the compound `NS(=O)(=O)c1cc(C(=O)c2ccc(C3CCCC3)cc2)ccc1Cl` [Example 28, 2-Chloro-5-(4-cyclopentyl-benzoyl)-benzenesulfonamide], the IC50 at Gelatinase (MMP-2) stood at 4.26 µM; on Collagenase-3 (MMP-13), 4.49 µM.

For the compound `NS(=O)(=O)c1cc(C(=O)c2ccc(C3CCCCC3)cc2)ccc1Cl` [Example 29, 2-Chloro-5-(4-cyclohexyl-benzoyl)-benzenesulfonamide], the IC50 turned out to be 13.3 µM at Gelatinase (MMP-2) and 11.3 µM at Collagenase-3 (MMP-13).

With `C[Si](C)(C)C#Cc1ccc(C(=O)c2ccc(Cl)c(S(N)(=O)=O)c2)cc1` [Example 30, 2-Chloro-5-(4-trimethyl-silanylethynyl-benzoyl)-benzenesulfonamide], the results for the IC50 on Gelatinase (MMP-2) and at Collagenase-3 (MMP-13) were 1.23 µM and 1.69 µM, respectively.

Turning to `NS(=O)(=O)c1cc(C(=O)c2ccc(C#Cc3ccccc3)cc2)ccc1Cl` [Example 32, 2-Chloro-5-(4-phenylethynyl-benzoyl)-benzenesulfonamide], the 50% inhibitory concentration (IC50) was 8.3 µM on Gelatinase (MMP-2) and 10 µM on Collagenase-3 (MMP-13).

For `CCCNC(=O)c1ccc(C(=O)c2ccc(Cl)c(S(N)(=O)=O)c2)cc1` [Example 33, 4-(4-Chloro-3-sulfamoyl-benzoyl)-N-propyl-benzamide], the IC50 is above 30 µM on Gelatinase (MMP-2) and 2.59 µM on Collagenase-3 (MMP-13).

Regarding `NS(=O)(=O)c1cc(C(=O)c2ccc(C(=O)Nc3ccccc3)cc2)ccc1Cl` [Example 34, 4-(4-Chloro-3-sulfamoyl-benzoyl)-N-phenyl-benzamide], the values for the IC50 on Gelatinase (MMP-2) and at Collagenase-3 (MMP-13) were 2.51 µM and 4.71 µM, respectively.

Consider `NS(=O)(=O)c1cc(C(=O)c2ccc(C(=O)NCc3ccccc3)cc2)ccc1Cl` [Example 35, N-Benzyl-4-(4-chloro-3-sulfamoyl-benzoyl)-benzamide], for which the figures for the 50% inhibitory concentration (IC50) at Gelatinase (MMP-2) and at Collagenase-3 (MMP-13) were 6.89 µM and 0.84 µM, respectively.

On to `NS(=O)(=O)c1cc(C(=O)c2ccc(C(=O)NCCc3ccccn3)cc2)ccc1Cl` [Example 36, 4-(4-Chloro-3-sulfamoyl-benzoyl)-N-(2-pyridin-2-yl-ethyl)-benzamide], for which the IC50 on Gelatinase (MMP-2) was found to be 14.9 µM; on Collagenase-3 (MMP-13), 8.54 µM.

With `NS(=O)(=O)c1cc(C(=O)c2ccc(C(=O)NCCCCc3ccccc3)cc2)ccc1Cl` [Example 37, 4-(4-Chloro-3-sulfamoyl-benzoyl)-N-(4-phenyl-butyl)-benzamide], the IC50 at Gelatinase (MMP-2) was determined as 22.8 µM; on Collagenase-3 (MMP-13), 8.9 µM.

As to `NS(=O)(=O)c1cc(C(=O)c2ccc(-c3ccsc3)cc2)ccc1Cl` [Example 40, 2-Chloro-5-(4-thiophen-3-yl-benzoyl)-benzenesulfonamide], the IC50 is above 30 µM on Gelatinase (MMP-2) and 7.06 µM on Collagenase-3 (MMP-13).

Regarding `NS(=O)(=O)c1cc(C(=O)c2ccc(-c3ccnc(Cl)c3)cc2)ccc1Cl` [Example 43, 2-Chloro-5-[4-(2-chloro-pyridin-4-yl)-benzoyl]-benzenesulfonamide], the IC50 on Gelatinase (MMP-2) is 0.3 µM; at Collagenase-3 (MMP-13), 0.38 µM.

In the case of `N#Cc1ccc(C(=O)c2ccc(Cl)c(S(N)(=O)=O)c2)cc1` [Example 44, 2-Chloro-5-(4-cyano-benzoyl)-benzenesulfonamide], the IC50 was 0.62 µM at Gelatinase (MMP-2) and 0.56 µM on Collagenase-3 (MMP-13).

For `Cc1ccc(C(=O)c2ccc(Cl)c(S(N)(=O)=O)c2)c(Br)c1` [Example 45, 5-(2-Bromo-4-methyl-benzoyl)-2-chloro-benzenesulfonamide], the IC50 at Gelatinase (MMP-2) stood at 0.053 µM; on Collagenase-3 (MMP-13), 0.08 µM.

For the compound `Cc1cc(Br)ccc1C(=O)c1ccc(Cl)c(S(N)(=O)=O)c1` [Example 46, 5-(4-Bromo-2-methyl-benzoyl)-2-chloro-benzenesulfonamide], the half-inhibitory concentration (IC50) on Gelatinase (MMP-2) was 0.15 µM; at Collagenase-3 (MMP-13) it was 0.21 µM.

For `COc1ccc(C(=O)c2ccc(Cl)c(S(N)(=O)=O)c2)c(OC)c1` [Example 48, 2-Chloro-5-(2,4-dimethoxy-benzoyl)-benzenesulfonamide], the values for the IC50 on Gelatinase (MMP-2) and at Collagenase-3 (MMP-13) were above 30 µM and 25.3 µM, respectively.

As to `NS(=O)(=O)c1cc(C(=O)c2ccccc2)ccc1Cl` [Example 49, 5-Benzoyl-2-chloro-benzenesulfonamide], the IC50 is above 30 µM at Gelatinase (MMP-2) and 24.8 µM at Collagenase-3 (MMP-13).

The record behind these values is patent publication US20130096105A1, “ArylSulfonamide Based Matrix Metalloprotease Inhibitors” (NOVARTIS AG, priority 2008, published 2013).
